Test results published in PMC12799219, “In vitro and in vivo studies on the activity and selectivity of butoconazole in experimental infection by Trypanosoma cruzi” (Memórias do Instituto Oswaldo Cruz, 2026).

Assay: In vivo pharmacokinetic study, plasma levels by LC-MS/MS
Set-up: species or system BALB/c mice
Conditions: mice, single dose 100 mg/kg i.p.
Experimental: In vivo pharmacokinetic study - Adult male specific-pathogen-free BALB/c mice, provided by the Faculty of Veterinary Sciences, National University of La Plata (FCV-UNLP) were used. Animals were housed in cages with four animals per cage, under a 12 h light/dark cycle and controlled temperature, provided with water and food ad libitum and environmental enrichment. A minimum period of six days was given after transport for physiological acclimatisation before any procedure. Five groups of mice (n = 3 per group) were used, one per sampling time. […] Plasma was obtained immediately after blood collection by centrifugation for 10 min at 4,000 rpm and conserved at -17 °C until quantification. […]
The equipment used was a Waters Alliance 2695 HPLC coupled to a tandem quadrupole mass spectrometer, Premier XE (Waters Corp.), equipped with an electrospray ionisation source operating in positive mode (ESI+). […] The mass spectrometer was configured to operate in multiple reaction monitoring (MRM) mode, employing two mass transitions for the compound, one for quantification (411.0 > 164.9) and the other for confirmation (413.2 > 164.9).
Unbound drug concentrations in plasma were estimated by multiplying the analytically determined total drug concentrations by the unbound fraction predicted by Deep-PK.[27]

## Clc1ccc(CCC(Cn2ccnc2)Sc2c(Cl)cccc2Cl)cc1 (centres unmarked) [BTZ, butoconazole]
  mean peak total plasma concentration: 25.9 µM
  time of mean peak plasma concentration: 2 h
